The structures appear in SMILES notation. Active and inactive are the calls of the source. No cut-off for these calls is given here.

The values below come from ChEMBL document CHEMBL4007494, “Structural Basis of Small-Molecule Aggregate Induced Inhibition of a Protein-Protein Interaction” (J Med Chem, 2017).

Test [1] can be described thus: Critical aggregation concentration assessed as formation of aggregate after 30 mins in presence of triton X-100 by light scattering method.
A short description of test [2]: Critical aggregation concentration assessed as formation of aggregate after 30 mins by light scattering method.
Test [3] has as its target T1, Tumor necrosis factor (Homo sapiens, UniProt P01375). The test can be described thus: Binding affinity to human TNF-alpha soluble domain assessed as decrease in complex formation with human TNFR2 extracellular domain preincubated for 1 hr followed by receptor addition measure after 2 hrs by TR-FRET assay. In general terms: Time-resolved FRET reads energy transfer from a long-lived donor to a nearby acceptor.

In test [4] the target is T1, Tumor necrosis factor. The test can be described thus: Binding affinity to human TNF-alpha soluble domain assessed as decrease in complex formation with human TNFR1 extracellular domain preincubated for 1 hr followed by receptor addition measure after 2 hrs by TR-FRET assay.
For test [5], the target named is T1, Tumor necrosis factor. As to conditions: 50 uM.
Description: Binding affinity to human TNF-alpha soluble domain assessed as sedimentation velocity constant s20,w at 50 uM after 3 hrs by ultracentrifugation method

T1 sequence (P01375 whole entry, the tested form may be a part): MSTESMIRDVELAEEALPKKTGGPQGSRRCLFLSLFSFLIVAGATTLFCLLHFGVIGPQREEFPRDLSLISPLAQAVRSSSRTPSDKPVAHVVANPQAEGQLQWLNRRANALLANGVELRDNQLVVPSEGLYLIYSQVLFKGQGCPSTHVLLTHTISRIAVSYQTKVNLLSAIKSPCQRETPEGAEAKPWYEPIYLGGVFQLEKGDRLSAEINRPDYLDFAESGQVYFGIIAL

For `Clc1ccc(COC(Cn2ccnc2)c2ccc(Cl)cc2Cl)c(Cl)c1` (stereo not drawn), in test [1], the CAC entry was “inactive”. The CAC result in test [2] is “Dose-dependent effect”.
Take `Cc1cc2occ(CN(C)CCN(C)Cc3cn(-c4cccc(C(F)(F)F)c4)c4ccccc34)c(=O)c2cc1C`: the CAC in test [2] turned out to be 10 µM.
As for `Nc1nccc(N(Cc2ccccc2)c2ccccc2-c2cccc(-c3cnc(N4CCNCC4)nc3)c2)n1`, the CAC entry in test [1] is “inactive”. The results for the IC50 on Tumor necrosis factor [3] and on Tumor necrosis factor [4] were 1100 nM and 1200 nM, respectively. Besides, the CAC in test [2] turned out to be 1 µM. On Tumor necrosis factor [5], this compound gave an S20,w of 3.09.
